We go through 1 molecule from patent US20260041093A1, “Ionic Derivatives Of Aromatic Carboxylic Acid For Use As Plant Stimulants, Method For Stimulating Plants And Use Of These Derivatives For Manufacturing Compositions For Stimulating Plants” (FUNDACJA UNIWERSYTETU IM. ADAMA MICKIEWICZA W POZNANIU, priority 2022, published 2026).

Like-named read-outs stand apart in the source and are kept apart here.

The subject of one assay is Brome Mosaic Virus (BMV). Briefly: Protection of barley against Brome Mosaic Virus infection by watering (Examples 28 and 29). In kind it is in vivo. The following applies: 2 weeks after infection.
In assay [1] the test system is Pseudomonas syringae pv. Tomato (Pst). Nature of the assay: Protection of tomato against Pseudomonas syringae pv. Tomato by spraying (Example 33). In kind it is in vivo, Lycopersicon Esculentum Mill tomato. Particulars: 80 mg/L, sprayed twice; 2 weeks after infection. The method, then: Tomato plants, at the stage of the first pair of developed true leaves, were watered twice with a solution of substance 1-6 at a concentration of 80 mg/L, at a weekly interval. The control was tomato plants watered only with water. One week after the second treatment, a suspension of Pst bacteria at a concentration of 10^5 was spot-injected into the leaves using an insulin syringe (without a needle). The suspension was prepared from a two-day culture of Pst on solid medium. Protection against biotic stress was evaluated by the proliferation of bacteria in the leaves at the insertion site and the formation of a necrotic spot, compared to the control.
The procedure was followed as in Example 32, with the plants sprayed.

For assay [2], the system named is Tobacco Mosaic Virus (TMV). Nature of the assay: Protection of tobacco against TMV infection by spraying twice (Example 25). Particulars: sprayed twice, 7 days after infection. The format is in vivo, Nicotiana tabacum cv. Xanthi. From the text: 5-chlorosalicylate of choline; 3. 3,5-dichlorosalicylate of choline; 4. 3-chlorosalicylate of sodium, 5. 3-chlorosalicylate of potassium, 6. 3-chlorosalicylate of calcium, 7.

Assay [3] deals with TMV. Briefly: Protection of tobacco against TMV infected 3 weeks after the last treatment (Example 27). In kind it is in vivo. Particulars: infected with TMV 3 weeks after the last treatment. The method, then:
They proceeded as in Example 24, using substances 1-4 at concentrations of 10, 40 and 80 mg/L for treatment, with treated and control plants divided into 3 batches and their leaves infected with the virus 1, 2 and 3 weeks after the last treatment, respectively. […] A similar effect occurred with spraying.

For assay [4], the system named is Pseudomonas syringae pv. Tomato (Pst). Particulars: 2 weeks after infection. The procedure:
Tobacco plants at the stage of 3 developed leaves were watered twice, at a weekly interval, with a solution of test substances 1-11 at concentrations of 10, 40, 80 mg/L. The control was tobacco plants watered with water only. One week after the second treatment, a suspension of Pst bacteria at a concentration of 10^5 was spotted into the leaves using an insulin syringe (without a needle). The suspension was prepared from a two-day culture of Pst on solid medium. Protection against biotic stress was evaluated by the proliferation of bacteria in the leaves at the insertion site and the formation of a necrotic spot, compared to the control.
We proceeded as in Example 30, with the effectiveness of protection against biotic stress tested against bacterial cell concentrations raised to about 10^6.

Assay [5] relates to TMV. Nature of the assay: Protection of tobacco against TMV, single spray, comparison with BION (Example 26). In kind it is in vivo, Nicotiana tabacum cv. Xanthi. The following applies: sprayed once, infected a week later. The method, then:
Tobacco plants (Nicotiana tabacum) cv. Xanthi at the stage of three developed leaves were sprayed once with solutions of substance 1-5 or BION™ at concentrations of 10, 40, 80 mg/L. A week later, they were mechanically infected with TMV by rubbing the leaves with a square soaked in a suspension of purified virus, with a concentration of about 2 μg/ml. The level of protection against the effects of biotic stress was evaluated by comparing the number of necrotic spots caused by TMV on the leaves of plants treated with substances 1-5 and BION™ and control plants.
A reduction in the number of necrotic spots indicates protection from the effects of the biotic agent on the plant.

The subject of another assay is poinsettia. The following applies: treated three times, 50 mg/L; not watered for 7 days; control plants wilted. The text has this:
The plants were then subjected to drought stress—they were not watered for 7 days.

For the molecule `C[N+](C)(C)CCO.O=C([O-])c1cccc(Cl)c1O` [choline 3-chlorosalicylate], the “% reduction in necrotic spots compared to control” value (from here on “% reduction in necrotic spots”) with Brome Mosaic Virus (BMV) (10 mg/L, watered) worked out at 69%; in the assay with Brome Mosaic Virus (BMV) (80 mg/L, watered twice), 100%; in the assay on Brome Mosaic Virus (BMV) (80 mg/L, watered twice, listed as 2-hydroxyethyl(trimethyl)ammonium 3-chlorosalicylate) it was 98%; in assay [1] it was 93%; in assay [2] (10 mg/L), 80%; in assay [2] (40 mg/L), 100%. Further, the “% reduction in necrotic spots” value in assay [2] (80 mg/L) was found to be 85%; with TMV [3] (10 mg/L), 58%; in the assay with TMV [3] (40 mg/L) it was 92%; with TMV [3] (80 mg/L), 98%; in assay [4] (10 mg/L, watered twice, Pst 10^5), 65%; in assay [4] (40 mg/L, watered twice, Pst 10^5) it was 72%. Besides, the “% reduction in necrotic spots” value in assay [4] (80 mg/L, bacterial cell concentration raised to about 10^6) is given as 85%; in assay [4] (80 mg/L, watered twice, Pst 10^5) it was 89%; with TMV [5] (10 mg/L), 58%; with TMV [5] (40 mg/L) it was 92%; with TMV [5] (80 mg/L) it was 98%. Moreover, the “drought effects on the plants” value with poinsettia is given as “no drought effects were observed”.
